Data reported in US20210047278A1, “E3 UBIQUITIN LIGASE AGONISTS, PHARMACEUTICAL COMPOSITIONS INCLUDING THE E3 UBIQUITIN LIGASE AGONISTS, RELATED METHODS OF USE” (FRED HUTCHINSON CANCER RESEARCH CENTER, priority 2018, published 2021).
Like-named read-outs stand apart in the source and are kept apart here.

Key:
Assay type in all cases: binding
pCycE alone = experiment: Counterscreen 2 ALPHAscreen with cyclin E phosphopeptide alone (CSRUN2/DCSRUN2); settings: for CyCEP ACT DCSRUN2 Averaged Max % Response: activation relative to WT-FBW7+pCycE, averaged maximum; for EC50: dose-response, triplicate, 10 point 3-fold dilutional series, read-out: CyCEP ACT DCSRUN2 Final EC50
Protocol: (§1) Studies in 384-well format were performed using the ENVISION system. Reagent concentrations (see FIG. 6A), order of addition, pH (see FIG. 6B), and reducing agent were altered with the goal of enhancing the dynamic range between wt-FBW7 (the positive control) and FBW7^ARG (FIG. 6 and not shown). Wt-FBW7 produced a signal 100× greater with phosphorylated cyclin E degron peptide compared with unphosphorylated, which represents the assay's maximum range (FIG. 6C). […] This assay thus detects the residual affinity of the FBW7^ARG-substrate interaction, which, as predicted, is stronger than wt-FBW7 protein with unphosphorylated cyclin E peptide. Concurrent with this primary assay, counter ALPHAscreens were developed which omitted either FBW7 or peptide (to eliminate hits that are general ALPHAscreen agonists), or used an irrelevant phosphopeptide (to eliminate compounds that simply augment binding to phosphopeptides). […]
(§2) The 77 hits were subjected to a dose-response assay in which each compound was tested in triplicate in a 10 point 3-fold dilutional series, to a maximum concentration of approximately 87 μM. Three screens were performed, using FBW7^ARG+pCycE (DRUN), FBW7^ARG (DCSRUN1), or pCycE alone (DCSRUN2). See TABLES 2, 3, and 4, respectively, and FIG. 10A. All of the assays performed extremely well, and threshold of 10% activation (relative to WT-FBW7+pCycE) was set as positive. […] Many hits fell into shared structure cluster ID groups, reinforcing the idea that they function as specific agonists (see below and TABLE 5).

FBW7^ARG+pCycE = biological target: T1, FBW7^ARG+pCycE (Homo sapiens, UniProt Q969H0, R505L); experiment: FBW7^ARG-cyclin E agonist ALPHAscreen (primary PRUN, confirmation CRUN1, dose-response DRUN); settings: for EC50 / Emax: DRUN dose-response; for Emax: relative to WT-FBW7+pCycE, read-out: FBW7 ACT Averaged Max % Response
T1 construct: GST (TEV site and flexible linker) (N, cleaved yes); made in house; host or cells: SF9 insect cells (baculovirus)
T1 sequence (Q969H0 64-707 R505L): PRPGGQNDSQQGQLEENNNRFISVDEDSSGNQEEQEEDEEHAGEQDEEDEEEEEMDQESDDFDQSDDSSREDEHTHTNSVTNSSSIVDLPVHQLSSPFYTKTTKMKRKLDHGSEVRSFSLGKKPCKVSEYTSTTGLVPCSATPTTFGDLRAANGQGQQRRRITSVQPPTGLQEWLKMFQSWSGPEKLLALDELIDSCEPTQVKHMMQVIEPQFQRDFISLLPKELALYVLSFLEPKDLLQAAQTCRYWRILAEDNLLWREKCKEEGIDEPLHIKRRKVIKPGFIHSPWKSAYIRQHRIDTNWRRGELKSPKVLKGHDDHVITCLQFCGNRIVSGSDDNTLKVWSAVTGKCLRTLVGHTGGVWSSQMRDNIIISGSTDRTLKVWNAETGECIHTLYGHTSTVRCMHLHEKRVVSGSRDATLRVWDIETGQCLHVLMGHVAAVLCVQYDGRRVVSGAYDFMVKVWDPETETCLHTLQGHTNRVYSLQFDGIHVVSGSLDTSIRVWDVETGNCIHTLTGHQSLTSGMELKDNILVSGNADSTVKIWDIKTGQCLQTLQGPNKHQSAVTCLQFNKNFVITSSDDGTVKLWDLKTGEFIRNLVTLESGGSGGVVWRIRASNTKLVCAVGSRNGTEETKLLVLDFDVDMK
T1 sequence (P63208 2-163 partner): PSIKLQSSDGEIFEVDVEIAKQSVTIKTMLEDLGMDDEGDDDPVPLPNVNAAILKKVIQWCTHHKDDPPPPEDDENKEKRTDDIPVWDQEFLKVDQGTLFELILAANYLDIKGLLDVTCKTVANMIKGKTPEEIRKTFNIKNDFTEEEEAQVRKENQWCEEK
Text: FBW7^ARG refers to a class of loss-of-function mutations of the of FBW7 ubiquitin ligase that target a key phosphate-binding arginine residue in the FBW7 substrate-binding domain. These mutations are commonly found in human cancers and promote tumorigenesis by impairing the interactions between FBW7 and its substrates, such as cyclin E and Myc. Described herein is a high throughput screen (HTS) to identify agonists, such as small molecules, that augment FBW7^ARG-substrate binding. In an embodiment, the HTS is based on the Amplified Luminescent Proximity Homogenous Assay (ALPHAscreen) because it detects protein-protein interactions with a large dynamic range. ALPHAscreen is a bead-based proximity assay wherein donor beads contain a photosensitizer, phthalocyanine, and acceptor beads contain thioxene, anthracene and rubrenein in sufficient quantities to generate a chemiluminescence/fluorescence reaction (FIG. 4A). Upon excitation with excitation illumination, such as light having a wavelength of 680 nm, of the donor beads, phthalocyanine converts ambient oxygen to singlet oxygen, which can diffuse approximately 200 nm within its 4-microsecond half-life. If an acceptor bead is in close proximity to an excited donor bead, singlet oxygen transfers its energy to the acceptor, resulting in emitted light at a broad bandwidth of −520-620 nm. The HTS-compatible FBW7/cyclin E ALPHAscreen assay described herein uses streptavidin coupled donor beads and Ni-chelate acceptor beads. In this assay, biotinylated cyclin E phosphopeptide and the His-tagged FBW7 mutant protein have high affinity for the donor and acceptor beads, respectively (FIG. 4B). A small molecule that is able to bridge the binding sites of the peptide and the mutant protein (or induce a conformational change that increases affinity of the protein for the peptide) will bring the donor and acceptor beads in close proximity to each other, resulting in an ALPHA signal. As designed, this assay format is a very sensitive, non-radioactive, homogenous “mix-and-read” format that is HT compatible in 384 and 1536 well formats.
In the 384-well screening assay, 10 uL of acceptor beads with 25 nM of the FBW7^ARG (RLFBW7) are dispensed to test wells; acceptor beads with 25 nM of the wt-FBW7 protein (WTFBW7) are dispensed to control wells. Test compounds are then added by pintool transfer and the mixture is incubated for 30 minutes. An additional 10 uL of donor beads with 25 nM cyclin E phosphopeptide is then added to all wells and the plate is incubated for 4 hours before the ALPHA signal is measured.
In preparation for large-scale screening, the assay was miniaturized to a 1536-well format. The miniaturized screen performed outstandingly in all respects. The screen was enhanced with respect to several parameters and assayed its performance using mutant FBW7 and wt-FBW7, as well as non-specific assay agonists. […] For example, the following Z′-scores/FBW7 concentrations were obtained: 6.25 nM/Z′=0.62, 12.5 nm/Z′=0.85, 25.0 nM/Z′=0.84.
1. Add 2.5 uL of RLFBW7/cycE˜P/Ni beads: Final [25 nM/25 nM/10 ug/ml].
2. Add 2.5 uL of WTFBW7/cycE˜P/Ni beads: Final [25 nM/25 nM/10 ug/ml].
4. Add 2.5 uL of SA beads to all wells Final [10 ug/ml],
5. Add 30 nL of compounds,
6. Read ALPHAscreen on Envision
The large-scale FBW7 agonist ALPHAscreen was completed using FBW7^ARG and a phosphorylated cyclin E (pCycE) degron peptide. Wt-FBW7+pCycE-peptide was the “high control”, and Wt-FBW7+unphosph. CycE peptide was the “low control”. The screen was performed on the 645,000-compound Scripps Diversity Library using 1536-well format and drug concentrations of 26.1 μM. An algorithm aided hit identification based on the average percent activation for all compounds and their standard deviation.
A confirmation assay of all 853 compounds in triplicate using a single concentration (26.1 μM). […]

FBW7^ARG (RLFBW7) alone = biological target: T2, FBW7^ARG (RLFBW7) alone (Homo sapiens, UniProt Q969H0, R505L); experiment: Counterscreen 1 ALPHAscreen with FBW7^ARG alone (CSRUN1/DCSRUN1); settings: dose-response counterscreen; for Emax: read-out: RLFBW7 ACT DCSRUN1 Averaged Max % Response
T2 construct: GST (TEV site and flexible linker) (N, cleaved yes); made in house; host or cells: SF9 insect cells (baculovirus)
T2 sequence (Q969H0 64-707 R505L): as the sequence (Q969H0 64-707 R505L) above
T2 sequence (P63208 2-163 partner): as the sequence (P63208 2-163 partner) above
Protocol: as §1, §2

[1] = raw curve fit, read-out: FBW7 ACT EC50 Curve Fit Raw, Molar
[2] = triplicate, 10 point 3-fold dilution, max approx. 87 μM, read-out: FBW7 ACT Final EC50, Molar
[3] = confirmation assay, triplicate, single concentration 26.1 μM, read-out: FBW7 ACT CRUN1 Avg % Response and Stdev
[4] = primary screen, 1536-well, 26.1 μM, FBW7^ARG + pCycE degron peptide, high control wt-FBW7+pCycE, read-out: FBW7 ACT PRUN % Response
[5] = raw curve fit, read-out: RLFBW7 ACT DCSRUN1 EC50 Curve Fit Raw
[6] = read-out: RLFBW7 ACT DCSRUN1 Final EC50

| Compound | CyCEP ACT DCSRUN2 Averaged Max % Response (pCycE alone) [%] | EC50 (pCycE alone) [µM] | EC50 (FBW7^ARG+pCycE; [1]) [µM] | Emax (FBW7^ARG+pCycE) [%] | EC50 (FBW7^ARG+pCycE; [2]) [µM] | activation at 26.1 µM (FBW7^ARG+pCycE; [3]) [%] | activation at 26.1 µM (FBW7^ARG+pCycE; [4]) [%] | EC50 (FBW7^ARG (RLFBW7) alone; [5]) [µM] | Emax (FBW7^ARG (RLFBW7) alone) [%] | EC50 (FBW7^ARG (RLFBW7) alone; [6]) [µM] | RLFBW7 ACT DCSRUN1 Hill Slope (FBW7^ARG (RLFBW7) alone) |
| --- | --- | --- | --- | --- | --- | --- | --- | --- | --- | --- | --- |
| CC(C)(C)OC(=O)N/N=C\c1cccs1 [SR-01000110457-1] | 0.10 | > 65.3 | 1.4 | 6.03 | > 65.3 | 2.27 ± 0.05 | 5.59 | 0.823 | 1.17 | > 65.3 |  |
| CSc1ccccc1C(=O)Nc1nc2nc(C)cc(C)c2s1 [SR-01000917298-1] | 0.18 | > 65.3 | 53.6 | 23.5 | > 65.3 | 3.94 ± 9.71 | 8.85 | 28.6 | 83 | 29.9 | 6.64 |
| CC(C)c1ccc(Nc2nccn3c(-c4ccoc4)cnc23)cc1 [SR-01000376943-1] | 1.39 | > 65.3 | 12.7 | 6.99 | > 65.3 | 2.06 ± 0.33 | 2.3 | 13.9 | -0.189 | > 65.3 |  |
| CCCCCCCC(=O)Nc1ccc(C(=O)Nc2ccc(O)c(C(=O)O)c2)cc1 [SR-01000507444-1] | 2.05 | > 49.3 | 5.7 | 13.7 | > 49.3 | 4.18 ± 0.65 | 4.07 |  | 1.89 | > 49.3 |  |
| CCSc1nnc(C2CCN(CC(=O)Nc3cccc4ccccc34)CC2)n1C [SR-01000349710-1] | 0.22 | > 65.3 | 18 | 22.9 | > 65.3 | 7.92 ± 0.35 | 2.77 | 47.6 | 0.67 | > 65.3 |  |
| CCSCCOC(=O)C1=C(C)NC2=C(C(=O)CCC2)C1c1ccc(Br)cc1 (centres unmarked) [SR-01000422432-1] | 0.21 | > 54.4 | 7.1 | 7.86 | > 54.4 | 5.2 ± 0.56 | 2.03 | 24.5 | 0.86 | > 54.4 |  |
| Cc1nc(C(C)NC(=O)c2cc(COc3ccc(F)cc3F)on2)cs1 (centres unmarked) [SR-01000168282-1] | 0.37 | > 65.3 | 2.3 | 6.52 | > 65.3 | 1.88 ± 0.38 | 2.02 | 0.0108 | 1.75 | > 65.3 |  |
| Cc1ccc(-c2cccc3cnc(Nc4ccc(-n5cnc(-c6ccccn6)n5)cc4)nc23)cn1.O=C(O)C(F)(F)F [SR-00000008492-1] | 0.22 | > 65.3 | 4 | 8.53 | > 65.3 | 4.91 ± 0.39 | 5.73 | 6.6 | 29.7 | > 65.3 |  |
| CCOC(=O)C1=CN(Cc2ccc(OC)cc2)C=C(C(=O)OCC)C1c1ccccc1OCc1ccccc1 [SR-01000587933-1] | 2.45 | > 44.2 |  | 12 |  | 2.81 ± 0.04 | 2.16 |  | 3.64 |  |  |
| COCCOC(=O)C1=C(C)NC2=C(C(=O)CC(c3ccccc3)C2)C1c1ccc(OCc2ccccc2)cc1 (centres unmarked) [SR-01000422392-1] | −57.8E−3 | > 51.3 | 30.4 | 8.49 | > 51.3 | 5.36 ± 0.53 | 3.41 | 0.689 | 3 | > 51.3 |  |
| COc1ccc(C2CC(=O)C3=C(C2)NC(C)=C(C(=O)OC(C)C)C3c2ccccc2OC(C)C)cc1 (centres unmarked) [SR-01000422384-1] | 0.09 | > 42.9 | 14.3 | 9.7 | > 42.9 | 6.29 ± 0.67 | 2.42 | 14.5 | 1.86 | > 42.9 |  |
| COc1cccc(/C=N/c2ccc3[nH]ncc3c2)c1O [SR-01000359514-1] | 0.13 | > 65.3 | 21.1 | 15.2 | > 65.3 | 2.38 ± 0.5 | 6.3 | 23.7 | 0.39 | > 65.3 |  |
| COc1ccccc1C1C(C(=O)OC2CCCC2)=C(C)NC2=C1C(=O)CC(c1ccccc1)C2 (centres unmarked) [SR-01000422836-1] | 0.14 | > 45.9 | 2400 | 10.3 | > 45.9 | 5.59 ± 0.74 | 2.6 | 16.4 | 4.23 | > 45.9 |  |
| Fc1ccccc1CSc1nnnn1-c1ccccc1F [SR-01000432842-1] | 2.47 | > 72.9 | 0.0082 | 8.63 | > 72.9 | 5.32 ± 2.7 | 2.34 | 0.0102 | 1.65 | > 72.9 |  |
| O=C(Nc1ccc2c(c1)OCO2)N1CCC(c2nnc(C3CC3)s2)CC1 [SR-01000922885-1] | 0.08 | > 65.3 | 31.9 | 17.5 | > 65.3 | 2.33 ± 0.59 | 2.62 | 24.5 | 0.2 | > 65.3 |  |
